This passage reports EC50 results from patent US8575168B2, “Compounds and compositions as modulators of GPR119 activity” (IRM LLC, priority 2009, dated 2013).

The target in this experiment is T1, human GPR119 (Homo sapiens, UniProt Q8TDV5).
T1 construct: expressed in transfected cells
T1 sequence (Q8TDV5 1-335): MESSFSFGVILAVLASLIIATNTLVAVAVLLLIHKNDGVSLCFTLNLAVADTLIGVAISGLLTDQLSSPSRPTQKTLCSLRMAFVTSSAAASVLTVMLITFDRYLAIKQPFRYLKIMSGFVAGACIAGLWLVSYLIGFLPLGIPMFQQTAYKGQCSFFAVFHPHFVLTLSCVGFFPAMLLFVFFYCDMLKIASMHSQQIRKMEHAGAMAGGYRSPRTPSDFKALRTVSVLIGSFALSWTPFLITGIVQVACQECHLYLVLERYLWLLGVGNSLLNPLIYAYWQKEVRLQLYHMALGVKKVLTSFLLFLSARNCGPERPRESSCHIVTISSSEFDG
In words: Cyclic AMP Assay in Stable Cell Line (HTRF). Type of experiment: cell-based. To be noted: Flp-In-CHO-hGPR119 cells, intracellular cAMP, 30 minutes at 37° C., 1 mM IBMX. As to the method: Flp-In-CHO cells (Invitrogen, Cat. #R758-07) are maintained in Ham's F12 medium supplemented with 10% fetal bovine serum, 1% antibiotic mixture and 2 mM L-glutamine. The cells are transfected with a DNA mixture containing human GPR119 in pcDNA5/FRT vector and the pOG44 vector (1:9) using Fugene6 (Roche), according to the manufacturer's instruction. After 48 hours, the medium is changed to medium supplemented with 400 μg/ml hygromycin B to initiate the selection of stably transfected cells.
To test the activity of compounds of the invention, Flp-In-CHO-hGPR119 cells are harvested and resuspended in DMEM plus 3% lipid-depleted fetal bovine serum. Forth μl of cells are plated in 384 well plates at a density of 15,000 cells/well. IBMX (3-isobutyl-1-methyl-xanthine) is added to the cells to a final concentration of 1 mM, followed by the addition of 500 nl of the compound to be tested. The cells are incubated at 37° C. for 30 minutes. Equal volume (20 μl) of the HTRF reagents, anti-cAMP-Cryptate and cAMP-XL665, are added to the cells. The plates are incubated at room temperature for 1 hour and read on a HTRF reader according to the manufacturer's instruction.
`CC(C)c1ccc(CN2CC(Oc3ccc(N4CCN(S(C)(=O)=O)CC4)nc3)C2)cc1` [Example A1, 1-(5-(1-(4-isopropylbenzyl)azetidin-3-yloxy)pyridin-2-yl)-4-(methylsulfonyl)piperazine] displayed an EC50 of 118 nM.
On to `CC(C)c1ccc(CN2CC(Oc3ccc(N4CCN(C(=O)OCc5ccccc5)CC4=O)nc3)C2)cc1` [Example A2, Benzyl 4-(5-(1-(4-isopropylbenzyl)azetidin-3-yloxy)pyridin-2-yl)-3-oxopiperazine-1-carboxylate], for which the EC50 worked out at 979 nM.
On to `CS(=O)(=O)N1CCN(c2cnc(OC3CN(Cc4ccc(C(F)(F)F)cc4)C3)cn2)C(=O)C1` [Example A3], for which the concentration giving a half-maximal response (EC50) was found to be 20 nM.
Compound `CS(=O)(=O)N1CCN(c2cnc(OC3CN(Cc4ccc(OC(F)(F)F)cc4)C3)cn2)C(=O)C1` [Example A4, 4-(methylsulfonyl)-1-(5-(1-(4-(trifluoromethoxy)benzyl)azetidin-3-yloxy)pyrazin-2-yl)piperazin-2-one] showed an EC50 of 12 nM.
The value for `CS(=O)(=O)N1CCC(c2cc(F)c(OC3CCN(Cc4ccc(C(F)(F)F)cc4)CC3)c(F)c2)CC1` [Example A5] was 9 nM; that for `CS(=O)(=O)N1CCN(c2cnc(OC3CN(Cc4ccc(C(F)(F)F)cc4)C3)cn2)CC1` [Example A6, 2-(4-(methylsulfonyl)piperazin-1-yl)-5-(1-(4-(trifluoromethyl)benzyl)azetidin-3-yloxy)pyrazine] was 69 nM.
The value for `CS(=O)(=O)N1CCC(c2cc(F)c(OC3CN(Cc4ccc(C(F)(F)F)cc4)C3)c(F)c2)CC1` [Example A7, 4-(3,5-difluoro-4-(1-(4-(trifluoromethyl)benzyl)azetidin-3-yloxy)phenyl)-1-(methylsulfonyl)piperidineine] was 13 nM; that for `CS(=O)(=O)N1CCN(c2ccc(OC3CN(Cc4ccc(OC(F)(F)F)cc4)C3)cn2)CC1` [Example A8] was 70 nM.
The compound `CS(=O)(=O)N1CCN(c2ccc(OC3CN(Cc4ccc(C(F)(F)F)cc4)C3)cn2)CC1` [Example A9] had a half-maximal effective concentration (EC50) of 38 nM. Against the preceding compound, the EC50 is about 1.8-fold lower.
With `CC(C)c1ccc(CN2CC(Oc3cnc(N4CCN(C(=O)OCc5ccccc5)CC4)cn3)C2)cc1` [Example A10], a half-maximal effect (EC50) was put at 666 nM.
Take `CC(C)c1ccc(CN2CC(Oc3cnc(N4CCN(S(C)(=O)=O)CC4)cn3)C2)cc1` [Example A11]: a half-maximal response (EC50) required 22 nM.
Compound `COc1ccc(CN2CC(Oc3ccc(N4CCN(S(C)(=O)=O)CC4)nc3)C2)cc1` [Example A12] gave an EC50 of 341 nM.
Compound `Cc1ccc(CN2CC(Oc3ccc(N4CCN(S(C)(=O)=O)CC4)nc3)C2)cc1` [Example A14] yielded an EC50 of 238 nM. This EC50 and that of the compound before are within 1.5-fold of each other.
In the case of `CS(=O)(=O)N1CCN(c2ccc(OC3CN(Cc4ccc(Cl)cc4)C3)cn2)CC1` [Example A15], the midpoint of the response, the EC50, lay at 134 nM.
Then `CS(=O)(=O)N1CCN(c2ccc(OC3CN(Cc4cccc(C(F)(F)F)c4)C3)cn2)CC1` [Example A16], with 884 nM.
`CS(=O)(=O)N1CCN(c2ccc(OC3CN(Cc4ccc(C(F)(F)F)cc4)C3)cn2)C(=O)C1` [Example A17]: a half-maximal effect (EC50) was put at 26 nM. This EC50 lies about 34-fold lower than the previous one.
For `CC(C)c1ccc(CN2CC(Oc3ccc(N4CCN(S(C)(=O)=O)CC4=O)nc3)C2)cc1` [Example A18], the EC50 worked out at 11 nM. This EC50 is about 2.4-fold lower than that of the compound before.
The value for `CC(C)c1ccc(CN2CC(Oc3cnc(N4CCN(S(C)(=O)=O)CC4=O)cn3)C2)cc1` [Example A19] was 12 nM; that for `CCCS(=O)(=O)N1CCN(c2ccc(OC3CN(Cc4ccc(C(F)(F)F)cc4)C3)cn2)C(=O)C1` [Example A20] was 9 nM; that for `CCCS(=O)(=O)N1CCN(c2ccc(OC3CN(Cc4ccc(C(F)(F)F)cc4)C3)cn2)CC1` [Example A21] was 39 nM.
Then `CC(C)c1ccc(CN2CC(Oc3ccc(N4CCN(S(C)(=O)=O)CC4)cc3)C2)cc1` [Example A22], with 116 nM.
`CC(Cc1ccc(C(F)(F)F)cc1)N1CC(Oc2c(F)cc(C3CCN(S(C)(=O)=O)CC3)cc2F)C1` (stereo not drawn) [Example A24] came in with a 50% effective concentration (EC50) of 177 nM.
As for `CCC(c1ccc(C(F)(F)F)cc1)N1CC(Oc2c(F)cc(C3CCN(S(C)(=O)=O)CC3)cc2F)C1` (stereo not drawn) [Example A25], the concentration for a half-maximal effect (EC50) is 246 nM.
As to `CS(=O)(=O)N1CCC(c2cc(F)c(OC3CN(Cc4ncc(C(F)(F)F)cc4Cl)C3)c(F)c2)CC1` [Example A26], the EC50 was determined as 330 nM.
`CS(=O)(=O)N1CCC(c2cc(F)c(OC3CN(Cc4ncc(C(F)(F)F)cn4)C3)c(F)c2)CC1` [Example A27]: the EC50 came to 764 nM.
In turn, `CS(=O)(=O)N1CCC(c2cc(F)c(OC3CN(Cc4ccc(C5(F)COC5)cc4)C3)c(F)c2)CC1` [Example A28] had a concentration giving a half-maximal response (EC50) of 49 nM.
With `CS(=O)(=O)N1CCC(c2cc(F)c(OC3CN(C(CO)c4ccc(C(F)(F)F)cc4)C3)c(F)c2)CC1` (stereo not drawn) [Example A29], the midpoint of the response, the EC50, lay at 1090 nM.
Compound `CS(=O)(=O)N1CCC(c2cc(F)c(OC3CN(Cc4ccc5ccccc5c4)C3)c(F)c2)CC1` [Example A30] came in with an EC50 of 135 nM.
Then `CS(=O)(=O)N1CCC(c2cc(F)c(OC3CN(Cc4cccc5ccccc45)C3)c(F)c2)CC1` [Example A31], with 652 nM; and `CS(=O)(=O)N1CCN(c2cc(F)c(OC3CN(Cc4ccc(C(F)(F)F)cc4)C3)c(F)c2)CC1` [Example A32], with 145 nM.
For the compound `CS(=O)(=O)N1CCN(c2cc(F)c(OC3CN(Cc4ccc(C(F)(F)F)cc4)C3)c(F)c2)C(=O)C1` [Example A33], a half-maximal effect (EC50) was put at 331 nM.
For the compound `CS(=O)(=O)N1CC=C(c2cc(F)c(OC3CN(Cc4ccc(C(F)(F)F)cc4)C3)c(F)c2)CC1` [Example A34], the EC50 amounted to 12 nM. This EC50 is about 28-fold lower than that of the compound before.
For `O=C(N1CC=C(c2cc(F)c(OC3CN(Cc4ccc(C(F)(F)F)cc4)C3)c(F)c2)CC1)C(F)(F)F` [Example A35], a half-maximal response (EC50) required 688 nM.
Compound `O=S(=O)(C1CCOCC1)N1CCC(c2cc(F)c(OC3CN(Cc4ccc(C(F)(F)F)cc4)C3)c(F)c2)CC1` [Example A36] registered an EC50 of 28 nM.
The value for `CC(C)(C)OC(=O)N1CCC(S(=O)(=O)N2CCC(c3cc(F)c(OC4CN(Cc5ccc(C(F)(F)F)cc5)C4)c(F)c3)CC2)CC1` [Example A37] was 325 nM; that for `O=S(=O)(C1CCNCC1)N1CCC(c2cc(F)c(OC3CN(Cc4ccc(C(F)(F)F)cc4)C3)c(F)c2)CC1` [Example A38] was 458 nM; that for `CC(C)(C)OC(=O)N1CCC(S(=O)(=O)N2CCC(c3cc(F)c(OC4CN(Cc5ccc(C(F)(F)F)cc5)C4)c(F)c3)CC2)C1` (stereo not drawn) [Example A39] was 214 nM.
For `O=S(=O)(C1CCNC1)N1CCC(c2cc(F)c(OC3CN(Cc4ccc(C(F)(F)F)cc4)C3)c(F)c2)CC1` (stereo not drawn) [Example A40], the EC50 was determined as 576 nM.
Regarding `O=S(=O)(CCCO)N1CCC(c2cc(F)c(OC3CN(Cc4ccc(C(F)(F)F)cc4)C3)c(F)c2)CC1` [Example A41], the EC50 is 36 nM. Compared with the last compound, the EC50 is about 16-fold lower.
The compound `CS(=O)(=O)N1CCN(c2ncc(OC3CN(Cc4ccc(C(F)(F)F)cc4)C3)cn2)CC1` [Example A42] came in with an EC50 of 149 nM.
Take `CS(=O)(=O)N1CCN(c2ccc(OC3CN(Cc4ccc(C(F)(F)F)cc4)C3)c(F)c2)CC1` [Example A43]: the half-maximal effective concentration (EC50) came to 115 nM.
With `CS(=O)(=O)N1CCC(c2cc(F)c(OC3CCN(Cc4ccc(C(F)(F)F)nc4)CC3)c(F)c2)CC1` [Example A44], it took 38 nM to reach a half-maximal effect (EC50).
`CS(=O)(=O)N1CCC(c2cc(F)c(OC3CCN(Cc4cccc(C(F)(F)F)c4)CC3)c(F)c2)CC1` [Example A45]: the EC50 is 48 nM.
On to `CS(=O)(=O)N1CCC(c2cc(F)c(OC3CCN(Cc4nc(C(F)(F)F)no4)CC3)c(F)c2)CC1` [Example B1, 5-((4-(2,6-Difluoro-4-(1-(methylsulfonyl)piperidin-4-yl)phenoxy)piperidin-1-yl)methyl)-3-(trifluoromethyl)-1,2,4-oxadiazole], for which the half-maximal effective concentration (EC50) was 7 nM.
Compound `CC(C)(F)c1noc(CN2CCC(Oc3c(F)cc(C4CCN(S(C)(=O)=O)CC4)cc3F)CC2)n1` [Example B2, 5-((4-(2,6-difluoro-4-(1-(methylsulfonyl)piperidin-4-yl)phenoxy)piperidin-1-yl)methyl)-3-(2-fluoropropan-2-yl)-1,2,4-oxadiazole] had an EC50 of 28 nM. Against the preceding compound, the EC50 is about 4-fold higher.
For the compound `CC(F)(F)c1noc(CN2CCC(Oc3c(F)cc(C4CCN(S(C)(=O)=O)CC4)cc3F)CC2)n1` [Example B3, 5-((4-(2,6-difluoro-4-(1-(methylsulfonyl)piperidin-4-yl)phenoxy)piperidin-1-yl)methyl)-3-(1,1-difluoroethyl)-1,2,4-oxadiazole], the EC50 is 16 nM. Against the preceding compound, the EC50 is about 1.8-fold lower.
As to `CS(=O)(=O)N1CCN(c2cnc(OC3CCN(Cc4nc(C(F)(F)F)no4)CC3)cn2)CC1` [Example B4, 5-((4-(5-(4-(Methylsulfonyl)piperazin-1-yl)pyrazin-2-yloxy)piperidin-1-yl)methyl)-3-(trifluoromethyl)-1,2,4-oxadiazole], the EC50 was 757 nM. This EC50 is about 47-fold higher than that of the compound before.
Regarding `CS(=O)(=O)N1CCC(c2cc(F)c(OC3CCN(Cc4nc(C(F)F)no4)CC3)c(F)c2)CC1` [Example B5], the EC50 was found to be 49 nM. This EC50 lies about 15-fold lower than the previous one.
